According to US20240293588A1, “THERAPEUTIC CONJUGATES” (Starpharma Pty Ltd, priority 2020, published 2024):

Key:
[1] = system: BT474 tumours; assay: Radiotherapeutic efficacy (177Lu) in BT474 xenograft model; assay type: in vivo, Balb/c nude mice; settings: 177Lu-labelled test articles, IV
Procedure: Healthy in female Balb/c nude mice (aged 9 weeks) were obtained from the Animal Resource Centre, Western Australia. A total of four mice per dosing group were initially implanted with estrogen pellets (17Beta-estradiol 0.72 mg/pellet 60 Day Release; Innovative Research of America) and then on day 2 were innoculated subcutaneously in the breast mammary fat pad with 10×10^6 BT474 cells in PBS:Matrigel (1:1). Mice were weighed, and tumours measured 2-3 times weekly using electronic callipers. Tumour volume (mm^3) were calculated as ((length (mm)×((width (mm))^2)/2. Mice were randomised into eight dosing groups outlined in the Table below as tumours reached mean volumes of approximately 100 mm^3 (approximately 5 weeks from implantation of cells).
Samples of each solution were taken and mixed 1:1 with 50 mM DTPA. 5 μL of each DTPA incubated sample or neat solution was spotted on TLC paper (Agilent iTLC-SG Glass microfiber chromatography paper impregnated with silica gel) and run with 50:50 H2O:ethanol. Detection of radiolabelled species migration was then achieved using an Eckert and Ziegler Mini-Scan and Flow-Count system. […] Control experiments were conducted to monitor the elution behaviour of free ^177Lu and ^177Lu bound to DTPA for quality control. […]

[2] = system: MDA-MB-231 cells; assay: GI50 panel (MTT assay), MDA-MB-231; assay type: cell-based; settings: MDA-MB-231, MTT, 72 h; Kadcyla based on estimated weight ADC; footnote: based on MMAE drug equivalents
[3] = system: MDA-MB-231 cells; assay: Cytotoxicity alamarBlue assay, MDA-MB-231 (HER2 lo); assay type: cell-based; settings: 48 h; for Cell viability %: mean ± sd, n=4
Procedure: (§1) The cytotoxicity of Compound 71 (control) and Compound 123 (targeted) toward MDA-MB-231, and MDA-MB-231/HER2 transfected cells were evaluated via alamarBlue assays. Cells were seeded at a density of 5×10^3, in 96-well plates and incubated overnight. Cells were then treated with indicated concentrations of test compositions for 48 h. AlamarBlue (Thermo Fisher, DAL1025) was added during the final 4 h of incubation. Reduction of alamarBlue in living cells yields a red fluorescent metabolite that can be read on a plate reader (560 nm excitation/610 nm emission). Cell viability and subsequent IC50 was determined from the blank corrected dose-response curves, with 4-parameter nonlinear nonlinear curve fit, variable slope (four parameters) in GraphPad Prism 7.02. […] Compound 123 (targeted) is approximately 140-fold increase in MDA-MB-231/HER2 cell growth inhibition compared to Compound 71 (control).

[4] = system: SKOV-3 cells; assay: In vitro association study (flow cytometry), SKOV-3; assay type: cell-based, human
Procedure: The HER2-expressing human metastatic carcinoma cell line MDA-MB-453 (ATCC HTB-131) and the HER2-lo epithelial adenocarcinoma cell line MDA-MB-231 (ATCC HTB-26) were maintained in Dulbecco's Modified Eagle's Medium (DMEM) containing 10% FBS and penicillin-streptomycin (100 U/mL) at 37° C. under a 5% CO2 humidified atmosphere and subcultured prior to confluence using trypsin. Human adenocarcinoma ovary cell line SKOV-3 (ATCC® HTB-77) cells were maintained in RPMI media with the addition of 10% (v/v) FBS and penicillin-streptomycin (100 U/mL) at 37° C. in a 5% CO2 humidified atmosphere and subcultured prior to confluence.
MDA-MB-231, MDA-MB-231/HER2 (HER2 knock in) (as described in Ex 6 above), or SKOV-3 cells were seeded in a 24-well plate (1×10^5 cells per well) in 500 μL of appropriate growth media with the addition of 10% (v/v) fetal bovine serum (FBS) and incubated with Compound 36 or Compound 41 at 3.33 nM, with incubation time varied from 1 to 24 h at 37° C. in a 5% CO2 humidified atmosphere. […] Cellular binding and association of sample were then determined through flow cytometry by the acquisition of the signal from Cy5.
To measure internalisation kinetics, nanobody-dendrimer was incubated with cells for 24, 4, 1, 0.5, and 0.1 hours at 37° C. before unbound nanobody-dendrimer was removed by washing and analysed by flow cytometry.

[5] = system: SKOV-3 cells; assay: GI50 panel (MTT assay), SKOV-3; assay type: cell-based; settings: SKOV-3, MTT, 72 h; Kadcyla based on estimated weight ADC; footnote: based on MMAE drug equivalents
[6] = system: MDA-MB-231 cells (HER2 lo); assay: In vitro association study (flow cytometry), MDA-MB-231; assay type: cell-based, human; settings: MDA-MB-231, over 24 h, result in words
[7] = system: MDA-MB-231 cells; assay: Confocal cellular uptake, MDA-MB-231; assay type: cell-based; settings: MDA-MB-231, 3.33 nM, 24 h
Procedure: MDA-MB-231, MDA-MB-231/HER2 and SKOV-3 cells were plated at 1.0×10^4 cells per well into μ-slide 8-well chambered coverslip (ibidi) and allowed to adhere overnight at 37° C., 5% CO2. Compound 71 and Compound 123 (3.33 nM) were then added and allowed to incubate for 1, 3, 6, and 24 h. The cells were washed and then fixed with 1% paraformaldehyde for 20 min at room temperature. The cell membrane was stained with Alexa Fluor 488-wheat germ agglutinin (AF488-WGA, 5 μg mL^−1) in DPBS at room temperature for 10 min. The cell nuclei were counterstained with 4′,6-diamidino-2-phenylindole (DAPI, 2 μg mL^−1) in DPBS at room temperature for 10 min. Fluorescence images and optical sections were collected using a confocal microscope (Leica SP8). Images were processed with Fiji (Image J 1.52n).

[8] = system: MDA-MB-231/HER2 (HER2 knock in) cells; assay: In vitro association study (flow cytometry), MDA-MB-231/HER2; assay type: cell-based, human
[9] = system: NCI-N87 cells; assay: GI50 panel (MTT assay), NCI-N87; assay type: cell-based; settings: NCI-N87, MTT, 72 h; Kadcyla based on estimated weight ADC; footnote: based on MMAE drug equivalents
[10] = system: OE-19 cells; assay: GI50 panel (MTT assay), OE19; assay type: cell-based; settings: OE19, MTT, 72 h; Kadcyla based on estimated weight ADC; footnote: based on MMAE drug equivalents
[11] = system: SK-Br-3 cells; assay: GI50 panel (MTT assay), SK-BR-3; assay type: cell-based; settings: SK-BR-3, MTT, 72 h; Kadcyla based on estimated weight ADC; footnote: based on MMAE drug equivalents
[12] = system: MDA-MB-231/HER2 transfected cells; assay: Cytotoxicity alamarBlue assay, MDA-MB-231/HER2 (HER2 hi); assay type: cell-based; settings: 48 h; for Cell viability %: mean ± sd, n=4
Procedure: MDA-MB-231 breast cancer cells were transfected with plasmid HER2 WT Addgene, 16257) using Lipofectamine 3000 according to manufacturer's instructions. After passaging in the presence of 500 μg/ml Geneticin (Thermo Fisher, catalogue 10131035), cells with stable overexpression of HER2 WT were isolated by fluorescence activated single cell sorting using a MoFlo Astrios (Beckman Coulter). A clonal cell population isolated from this process was further passaged in Geneticin before a second round of cell sorting and screening for transgene expression. A selected clone was then further expanded and stocks of this cell line, referred to as MDA-MB-231/HER2, were cryopreserved to generate a master stock of stably transduced cells.
as §1

BHALys[Lys]2[Lys]4[Lys]8[Lys]16[Lys]32[(α-NHAc)30(α-NHDOTA)2(ε-NHCOPEG2000)32] [Compound RH-3-160]
suppression of tumour growth [1]: effective in suppressing tumour growth

(MeTzPh)PEG4CO-NHPEG24CO—[N(PN)2][Lys]2[Lys]4[Lys]8[((α-NHCy5)1(α-NHGlu-VC-PAB-MMAE)7)(ε-NH-COPEG1100)8], G3 [Compound 71]
GI50 [2]: 12500 nM | Cell viability % ([3]; MDA-MB-231, MMAE concentration 1 × 10^−5 M): 94.2 ± 12.1% | Cell viability % ([3]; MDA-MB-231, MMAE concentration 1 × 10^−6 M): 94.4 ± 8.2% | Cell viability % ([3]; MDA-MB-231, MMAE concentration 1 × 10^−7 M): 94.2 ± 12.5% | Cell viability % ([3]; MDA-MB-231, MMAE concentration 1 × 10^−8 M): 96.6 ± 11.7% | Cell viability % ([3]; MDA-MB-231, MMAE concentration 5 × 10^−5 M): 81.1 ± 5.4% | IC50 ([3]; MDA-MB-231, alamarBlue, MMAE concentration): Ambiguous | mean fluorescence intensity (Cy5) ([4]; SKOV-3, 3.33 nM, 24 h, 37° C., mean±SD, n=3): 16.4±6.86 | binding towards cell line (flow cytometry) ([4]; SKOV-3, over 24 h, result in words): minimal binding | GI50 [5]: 1600 nM | binding towards cell line (flow cytometry) [6]: minimal binding | association with cells (confocal microscopy) [7]: little | mean fluorescence intensity (Cy5) ([8]; MDA-MB-231/HER2, 3.33 nM, 24 h, 37° C., mean±SD, n=3): 16.05±1.89 | binding towards cell line (flow cytometry) ([8]; MDA-MB-231/HER2, over 24 h, result in words): minimal binding | GI50 [9]: 2040 nM | GI50 [10]: 6120 nM | GI50 [11]: 948 nM | Cell viability % ([12]; MDA-MB-231/HER2, MMAE concentration 1 × 10^−5 M): 61.6 ± 3.1% | Cell viability % ([12]; MDA-MB-231/HER2, MMAE concentration 1 × 10^−6 M): 78.2 ± 9.1% | Cell viability % ([12]; MDA-MB-231/HER2, MMAE concentration 1 × 10^−7 M): 96.1 ± 3.6% | Cell viability % ([12]; MDA-MB-231/HER2, MMAE concentration 1 × 10^−8 M): 95.4 ± 7.6% | Cell viability % ([12]; MDA-MB-231/HER2, MMAE concentration 5 × 10^−5 M): 49.9 ± 15.0% | IC50 ([12]; MDA-MB-231/HER2, alamarBlue, MMAE concentration): 2840 nM
